Experiments:
HIF-1α in HeLa cells = test: HIF-1α levels in HeLa cells by anti-HIF-1α immunoblotting; settings: 50 or 250 µM, 6 h
PHD2_181–414 = biological target: T1, PHD2_181–414 (Homo sapiens, UniProt Q9GZT9); test: Non-denaturing ESI-MS crosslinking, 414 truncate; format: binding; settings: equimolar FeSO4 and compound, 3 h, 37 °C, 200 V
T1 construct: 414 (PHD2_181–414) truncated proteins; His6 (N, cleaved yes); made in house; host or cells: bacterial culture (2x TY, kanamycin, IPTG)
Experimental: (§1) The site of crosslinking of 3 was investigated using protein variants. First, 3 was incubated with C-terminal truncated PHD2 (PHD2_181–402) and a loop deletion variant (deletion of residues 238–250, PHD2Δ). […] Thus, 3 was incubated with PHD2 constructs truncated at residues 402, 410, 414 and 418. […] Crosslinking experiments with PHD2 R411M implied that R411 is not directly involved in crosslinking (Fig. S11, ESI ^†).
(§2) Fig. S8 Temperature dependence of the rate of crosslinking of 3 with PHD2. PHD2 (20 µM) was incubated with equimolar Fe(II) and 3 in buffer (50 mM Tris, 150 mM NaCl, pH 7.5) at 4, 20 and 37 °C. The ratio of crosslinking after 1, 2, and 4 h was determined by ESI-MS under denaturing conditions (n = 2), error bars represent 1 standard deviation.
(§3) Fig. S9 Ratio of crosslinked PHD2.3 before evaluation of catalytic activity. Labelled peaks correspond to: (A): PHD2, […]
Fig. S10 Non-denaturing ESI-MS analysis of (a) PHD2 and its C-terminal truncations (b) PHD2181-418; (c) PHD2181-414;
(d) PHD2181-410; (e) PHD2181-402 in the presence of equimolar amounts of FeSO4 and 3 after 3 hours incubation at 37 °C in ammonium acetate (15 mM, pH 7.5) at a sample cone voltage of 200V. Peaks present: (A): PHD2.Fe; (B): PHD2181-

PHD2 = biological target: T2, PHD2 (Homo sapiens, UniProt Q9GZT9); test: Peptide turnover assay (CODD hydroxylation) with MALDI-MS detection; format: biochemical; settings: pre-incubation 0, 1, 2 and 4 h
T2 construct: PHD2_181–426 (hereafter PHD2); His6 (N, cleaved yes); made in house; host or cells: bacterial culture (2x TY, kanamycin, IPTG)
T2 sequence (Q9GZT9 181-426): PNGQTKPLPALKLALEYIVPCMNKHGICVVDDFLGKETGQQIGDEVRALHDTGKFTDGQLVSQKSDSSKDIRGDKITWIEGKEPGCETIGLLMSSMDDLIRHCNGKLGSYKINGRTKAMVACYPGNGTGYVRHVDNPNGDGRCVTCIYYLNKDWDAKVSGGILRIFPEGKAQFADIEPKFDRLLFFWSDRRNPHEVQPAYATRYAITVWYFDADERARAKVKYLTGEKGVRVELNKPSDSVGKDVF

PHD2 K408I = biological target: T3, PHD2 K408I (Homo sapiens, UniProt Q9GZT9, K408I); test: Non-denaturing ESI-MS crosslinking, K408I variant; format: binding; settings: equimolar FeSO4 and compound, 3 h, 37 °C
T3 construct: PHD2_181–426 (hereafter PHD2); His6 (N, cleaved yes); made in house; host or cells: bacterial culture (2x TY, kanamycin, IPTG); QuikChange mutagenesis
T3 sequence (Q9GZT9 181-426 K408I): as the sequence (Q9GZT9 181-426) above, with K228I counted along it
Excerpt: The site of crosslinking was investigated by trypsin digest and LC-MS/MS. The imine adducts formed by 1/2 were fixed by reduction using sodium cyanoborohydride (Fig. S12, ESI ^†). Modified protein samples were digested (trypsin) and analysed by ‘nano LC-MS/MS’.[19] In all 3 samples, modification by the respective inhibitor was identified on the trypsin-derived peptide 403[…]411, and localised to K408 (Fig. 3B and Fig. S13, ESI ^†).
Fig. S11 Non-denaturing ESI-MS data of K408I PHD2 in the presence of equimolar amounts of FeSO4 and the Michael acceptor 3 after 3 hours incubation at 37 °C in ammonium acetate (15 mM, pH 7.5) at a sample cone voltages of (a) 80V or (b) 200V. Non-denaturing ESI-MS data of […] PHD2 in the presence of equimolar amounts of FeSO4 and 3 after 3 hours incubation at 37 °C in ammonium acetate (15 mM, pH 7.5) at a sample cone voltage of (c) 80V or (d) 200V. The peaks observed are consistent with the following complexes: (A): K408I.Fe; (B): non-covalent K408I.Fe.3 complex, (C): covalent K408I.Fe.3 complex; (D): R411M.Fe; (E): covalent R411M.Fe.3 complex.

[1] = biological target: T4, PHD2Δ (deletion of residues 238–250) (Homo sapiens, UniProt Q9GZT9, DEL238-250); test: Non-denaturing ESI-MS crosslinking, loop deletion variant; format: binding; settings: equimolar Fe(II) and compound, 3 h, 37 °C, 200 V
T4 construct: PHD2_181–426 (hereafter PHD2); His6 (N, cleaved yes); made in house; host or cells: bacterial culture (2x TY, kanamycin, IPTG)
T4 sequence (Q9GZT9 with tags, fused parts or gaps DEL238-250): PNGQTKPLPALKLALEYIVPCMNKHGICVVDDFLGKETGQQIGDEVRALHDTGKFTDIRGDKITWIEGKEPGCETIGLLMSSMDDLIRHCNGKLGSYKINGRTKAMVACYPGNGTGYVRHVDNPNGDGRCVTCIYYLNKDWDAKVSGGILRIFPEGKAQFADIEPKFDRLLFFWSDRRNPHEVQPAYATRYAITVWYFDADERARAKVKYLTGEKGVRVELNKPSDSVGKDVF
Experimental: as §1
(§4) Fig. 3 (A) Non-denaturing ESI-MS data on the flexible loop truncated (top) and C-terminal tail tuncated (bottom) versions of PHD2 in the presence of equimolar Fe(II) and 3 (3 hour incubation, 37 °C. Cone voltage: 200 V). A = [PHD2Δ + Fe], B = [PHD2Δ + Fe + 3], C = [PHD2_181–402 + Fe], D = [PHD2_181–402 + Fe + 3]. (B) MS/MS spectrum of the trypsin derived peptide 403[…]411 crosslinked to 3 identified K408 as the site of crosslinking.

PHD3 = PHD3 (Homo sapiens, UniProt Q9H6Z9); test: Denaturing MS covalent adduct formation with PHD3; format: binding; settings: enzyme 20 μM, Fe(II) 30 μM, compound 30 μM, 37 °C, 4 h
Sequence of PHD3 (Q9H6Z9 whole entry, the tested form may be a part): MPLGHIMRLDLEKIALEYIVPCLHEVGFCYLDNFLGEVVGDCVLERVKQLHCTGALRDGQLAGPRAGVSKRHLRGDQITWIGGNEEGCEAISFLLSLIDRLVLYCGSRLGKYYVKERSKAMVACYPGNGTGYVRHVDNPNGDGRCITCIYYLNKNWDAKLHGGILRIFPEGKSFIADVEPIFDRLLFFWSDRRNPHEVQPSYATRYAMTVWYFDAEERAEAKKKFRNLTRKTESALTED

PHD2_181–402 = biological target: T5, PHD2_181–402 (Homo sapiens, UniProt Q9GZT9); test: Non-denaturing ESI-MS crosslinking, C-terminal truncated PHD2; format: binding; settings: equimolar Fe(II) and compound, 3 h, 37 °C, 200 V
T5 construct: C-terminal truncated PHD2 (PHD2_181–402); His6 (N, cleaved yes); made in house; host or cells: bacterial culture (2x TY, kanamycin, IPTG)
T5 sequence (Q9GZT9 181-402): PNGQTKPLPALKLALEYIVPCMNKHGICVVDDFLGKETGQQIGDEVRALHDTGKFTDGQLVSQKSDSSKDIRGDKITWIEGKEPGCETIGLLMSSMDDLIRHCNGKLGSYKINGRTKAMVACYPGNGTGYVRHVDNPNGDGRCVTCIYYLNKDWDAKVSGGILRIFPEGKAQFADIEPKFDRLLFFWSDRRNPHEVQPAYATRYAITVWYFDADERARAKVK
Experimental: as §1, §4, §2, §3

T1 sequence (Q9GZT9 181-414): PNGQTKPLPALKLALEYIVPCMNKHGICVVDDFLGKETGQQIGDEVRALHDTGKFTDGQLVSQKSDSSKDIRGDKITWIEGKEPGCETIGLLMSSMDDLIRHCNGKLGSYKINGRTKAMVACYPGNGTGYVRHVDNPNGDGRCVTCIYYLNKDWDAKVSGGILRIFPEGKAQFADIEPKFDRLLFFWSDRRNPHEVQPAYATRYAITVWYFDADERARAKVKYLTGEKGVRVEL

## C=CC(=O)Nc1cccc(C(=O)NCC(=O)O)c1O [compound 3]
HIF-1α in HeLa cells
  HIF-1α upregulation in HeLa cells: no upregulation of HIF-1α
PHD2_181–414
  covalent modification of 414 truncate: covalently modified
PHD2
  activity of PHD2 pre-incubated with the compound: remained as active as the non pre-incubated, uninhibited PHD2
PHD2 K408I
  apparent covalent modification of PHD2 K408I: < 10%
[1]
  crosslinking with loop truncate: Crosslinking was maintained
PHD3
  covalent reaction with PHD3: did not covalently react
PHD2_181–402
  crosslinking with C-terminally truncated PHD2: near completely absent

— PMC6350621, “Small-molecules that covalently react with a human prolyl hydroxylase – towards activity modulation and substrate capture” (Chemical Communications (Cambridge, England), 2018)
